Laboratory results: patent publication US8269000B2, “Substituted pyrimidine and triazine compounds” (Gruenenthal GmbH, priority 2008, dated 2012)

molecular target: T1, rat B1R (Rattus norvegicus, UniProt P97583); assay: FLIPR Ca2+ functional study on bradykinin receptor 1 (rB1R CHO K1 cells); assay type: cell-based; details: % inhibition rat B1R at 10 μM
T1 construct: expressed in transfected cells; host or cells: CHO K1 cells
T1 sequence (P97583 1-337): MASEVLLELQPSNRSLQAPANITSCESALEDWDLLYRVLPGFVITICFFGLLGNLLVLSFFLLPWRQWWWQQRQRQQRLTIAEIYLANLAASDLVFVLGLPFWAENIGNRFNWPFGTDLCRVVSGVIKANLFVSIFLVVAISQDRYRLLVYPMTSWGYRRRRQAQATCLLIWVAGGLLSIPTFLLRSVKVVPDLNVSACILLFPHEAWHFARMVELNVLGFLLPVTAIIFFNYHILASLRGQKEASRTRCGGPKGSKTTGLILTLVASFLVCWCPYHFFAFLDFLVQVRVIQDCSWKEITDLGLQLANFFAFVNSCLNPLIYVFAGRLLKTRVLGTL
Method in brief: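 CHO K1 cells stably expressing human or rat B1R were loaded with Fluo-4 and read on FLIPR (ex 488/em 540 nm, peak counts). Test compound (10 μM, or a concentration range for IC50) was added first for % activation versus control agonist; after 10-20 min, EC80 Lys-Des-Arg9-bradykinin (human) or Des-Arg9-bradykinin (rat) was added, giving % inhibition of maximum. n=2-3, N≥2.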

Compound	% inh. (rat B1R) 10 μM [%]
COc1cc(C)c(S(=O)(=O)N2CCCCC2COc2ccnc(N3CCN(CC4CCN(C)CC4)CC3)n2)c(C)c1 (stereo not shown) [H_CC-006, 4-[[1-(4-methoxy-2,6-dimethylphenyl)sulfonyl-2-pipendinyl]methoxy]-2-[4-[(1-methyl-4-pipendinyl)methyl]-1-piperazinyl]pyrimidine]	61

same assay, conditions: CHO-K1, % inhibition rat B1R at 10 μM, read-out: % inh. (rat B1R) 10 μM

Compound	inhibition at 10 µM [%]
COc1cc(C)c(S(=O)(=O)N2CCCCC2COc2ccnc(N3CCN(C4CCN(C)CC4)CC3)n2)c(C)c1 (stereo not shown) [H_CC-001, 4-[[1-(4-methoxy-2,6-dimethylphenyl)sulfonyl-2-piperidinyl]methoxy]-2-[4-(1-methyl-4-piperidinyl)-1-piperazinyl]pyrimidine]	65
COc1cc(C)c(S(=O)(=O)N2CCC[C@H]2COc2ccnc(N3CCC(OCCN4CCCC4)(c4cccnc4)CC3)n2)c(C)c1 [H_CC-040, 4-[[(2S)-1-(4-methoxy-2,6-dimethylphenyl)sulfonyl-2-pyrrolidinyl]methoxy]-2-[4-(3-pyridyl)-4-(2-1-pyrrolidinylethoxy)-1-piperidinyl]pyrimidine]	51
COc1cc(C)c(S(=O)(=O)N2CCCCC2COc2nccc(N3CCC4(CC3)C(=O)NCN4c3ccccc3)n2)c(C)c1 (stereo not shown) [G_CC-025, 8-[2-[[1-(4-methoxy-2,6-dimethylphenyl)sulfonyl-2-piperidinyl]methoxy]-4-pyrimidinyl]-4-phenyl-2,4,8-triazaspiro[4.5]decan-1-one]	95
COc1cc(C)c(S(=O)(=O)N2CCCCC2COc2ccnc(N(C)CCN3CCC(c4ccccc4)(N4CCCC4)CC3)n2)c(C)c1 (stereo not shown) [H_CC-063, [4-[[1-[(4-methoxy-2,6-dimethyl-phenyl)sulfonyl]-piperidin-2-yl]-methoxy]-pyrimidin-2-yl]-methyl-[2-(4-phenyl-4-pyrrolidin-1-yl-piperidin-1-yl)-ethyl]-amine]	82
COc1cc(C)c(S(=O)(=O)N2CCC[C@H]2COc2nccc(N3CCC(O)(c4ccccn4)CC3)n2)c(C)c1 [G_CC-083, 1-[2-[[(2S)-1-[(4-methoxy-2,6-dimethyl-phenyl)sulfonyl]-pyrrolidin-2-yl]-methoxy]-pyrimidin-4-yl]-4-pyridin-2-yl-piperidin-4-ol]	62
COc1cc(C)c(S(=O)(=O)N2CCCCC2COc2ccnc(N3CCC(Oc4ccccn4)CC3)n2)c(C)c1 (stereo not shown) [H_CC-079, 4-[[1-[(4-methoxy-2,6-dimethyl-phenyl)sulfonyl]-piperidin-2-yl]-methoxy]-2-(4-pyridin-2-yloxy-piperidin-1-yl)-pyrimidine]	73
COc1cc(C)c(S(=O)(=O)N2c3ccccc3C[C@H]2COc2ccnc(N(C)CCN3CCC(c4ccccc4)(N(C)C)CC3)n2)c(C)c1 [H_CC-057, 2-(4-dimethylamino-4-phenyl-piperidin-1-yl)-ethyl-[4-[[(2S)-1-[(4-methoxy-2,6-dimethyl-phenyl)sulfonyl]-2,3-dihydro-1H-indol-2-yl]-methoxy]-pyrimidin-2-yl]-methyl-amine]	98
COc1cc(C)c(S(=O)(=O)N(C)CCOc2nccc(N(C)CCN3CCC(c4ccccc4)(N4CCCC4)CC3)n2)c(C)c1 [G_CC-119, 4-methoxy-N,2,6-trimethyl-N-[2-[4-[methyl-[2-(4-phenyl-4-pyrrolidin-1-yl-piperidin-1-yl)-ethyl]-amino]-pyrimidin-2-yl]oxy-ethyl]benzenesulfonic acid amide]	79
CCCCC1(N(C)C)CCN(CCN(C)c2nccc(OCC3CCCCN3S(=O)(=O)c3c(C)cc(OC)cc3C)n2)CC1 (stereo not shown) [H_CC-045, 2-(4-butyl-4-dimethylamino-piperidin-1-yl)-ethyl-[4-[[1-[(4-methoxy-2,6-dimethyl-phenyl)sulfonyl]-piperidin-2-yl]-methoxy]-pyrimidin-2-yl]-methyl-amine]	96
COc1cc(C)c(S(=O)(=O)N2CCCCC2COc2nccc(N(C)CCN3CCC(c4ccccc4)(N4CCCC4)CC3)n2)c(C)c1 (stereo not shown) [G_CC-073, [2-[[1-[(4-methoxy-2,6-dimethyl-phenyl)sulfonyl]-piperidin-2-yl]-methoxy]-pyrimidin-4-yl]-methyl-[2-(4-phenyl-4-pyrrolidin-1-yl-piperidin-1-yl)-ethyl]-amine]	101
COc1cc(C)c(S(=O)(=O)N(C)C(COc2ccnc(N3[C@@H]4CC[C@H]3CC(Oc3ccncc3)C4)n2)c2ccccc2)c(C)c1 (stereo partly drawn) [H_CC-093, 4-methoxy-N,2,6-trimethyl-N-[1-phenyl-2-[2-[(1S,5R)-3-pyridin-4-yloxy-8-azabicyclo[3.2.1]octan-8-yl]-pyrimidin-4-yl]oxy-ethyl]-benzenesulfonic acid amide]	63
O=S(=O)(c1cccc(C(F)(F)F)c1)N(CCCc1ccnc(N2CCC3(CCN(c4ccncc4)CC3)CC2)n1)C1CC1 [Example I-008, N-cyclopropyl-N-[3-[2-(9-pyridin-4-yl-3,9-diazaspiro[5.5]undecan-3-yl)-pyrimidin-4-yl]-propyl]-3-(trifluoromethyl)-benzenesulfonic acid amide]	94
COc1cc(C)c(S(=O)(=O)N2c3ccccc3C[C@H]2COc2ccnc(N3CCN(c4ccncc4)CC3)n2)c(C)c1 [H_CC-019, (2S)-1-(4-methoxy-2,6-dimethylphenyl)sulfonyl-2-[[2-[4-(4-pyridyl)-1-piperazinyl]-4-pyrimidinyl]oxymethyl]indoline]	98
COc1cc(C)c(S(=O)(=O)N2CCCCC2COc2nccc(N3CCC(CCCN4CCCC4)(c4cccnc4)CC3)n2)c(C)c1 (stereo not shown) [G_CC-080, 2-[[1-[(4-methoxy-2,6-dimethyl-phenyl)sulfonyl]-piperidin-2-yl]-methoxy]-4-[4-pyridin-3-yl-4-(3-pyrrolidin-1-yl-propyl)-piperidin-1-yl]-pyrimidine]	103
COc1cc(C)c(S(=O)(=O)N2CCCCC2COc2ccnc(N3CCN(C)CC3)n2)c(C)c1 (stereo not shown) [H_CC-003, 4-[[1-(4-methoxy-2,6-dimethylphenyl)sulfonyl-2-piperidinyl]methoxy]-2-(4-methyl-1-piperazinyl)pyrimidine]	58
COc1cc(C)c(S(=O)(=O)N2CCC[C@H]2COc2ccnc(N(C)CCN3CCC(c4ccccc4)(N4CCCC4)CC3)n2)c(C)c1 [H_CC-055, [4-[[(2S)-1-[(4-methoxy-2,6-dimethyl-phenyl)sulfonyl]-pyrrolidin-2-yl]-methoxy]-pyrimidin-2-yl]-methyl-[2-(4-phenyl-4-pyrrolidin-1-yl-piperidin-1-yl)-ethyl]-amine]	92
COc1cc(C)c(S(=O)(=O)N2CCC[C@H]2COc2nccc(N3CCC(n4c(=O)[nH]c5cc(Cl)ccc54)CC3)n2)c(C)c1 [G_CC-034, 6-chloro-3-[1-[2-[[(2S)-1-(4-methoxy-2,6-dimethylphenyl)sulfonyl-2-pyrrolidinyl]methoxy]-4-pyrimidinyl]-4-piperidinyl]-1H-benzimidazol-2-one]	93
COc1cc(C)c(S(=O)(=O)N2CCC[C@H]2COc2nccc(N3CCN(c4ncccn4)CC3)n2)c(C)c1 [G_CC-018, 2-[[(2S)-1-(4-methoxy-2,6-dimethylphenyl)sulfonyl-2-pyrrolidinyl]methoxy]-4-[4-(2-pyrimidinyl)-1-piperazinyl]pyrimidine]	97
